Source: patent US9156796B2, “Benzoimidazole-carboxylic acid amide derivatives as APJ receptor modulators” (SANOFI, priority 2013, dated 2015)
pEC50: −log10 of the molar value.

What follows are compounds tested against T1, human apelin receptor (Homo sapiens, UniProt P35414) (assay: Determination of agonism on the human apelin receptor by a calcium fluorescence assay (FLIPR)). Conditions: EC50 (APJ agonism), HEK293 cells stably transfected with human apelin receptor and Giaq protein, Fluo-4 calcium fluorescence.
T1 construct: expressed in transfected cells
T1 sequence (P35414 1-380): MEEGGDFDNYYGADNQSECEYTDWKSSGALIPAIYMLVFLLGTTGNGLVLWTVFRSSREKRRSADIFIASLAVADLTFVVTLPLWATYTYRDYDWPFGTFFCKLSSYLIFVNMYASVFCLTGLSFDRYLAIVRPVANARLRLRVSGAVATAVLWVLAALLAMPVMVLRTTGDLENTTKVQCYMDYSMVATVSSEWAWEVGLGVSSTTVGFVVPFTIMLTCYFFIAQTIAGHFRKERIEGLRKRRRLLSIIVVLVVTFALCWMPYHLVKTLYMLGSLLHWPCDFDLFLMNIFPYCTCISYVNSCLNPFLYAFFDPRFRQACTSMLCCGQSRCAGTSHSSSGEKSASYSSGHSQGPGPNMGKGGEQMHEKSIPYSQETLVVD
Format: cell-based
How it was run: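 Agonist EC50s come from peak intracellular calcium transients recorded by FLIPR Tetra, scaled to the 1 μM apelin-13 maximum per plate. Test system: HEK293 stably transfected with human apelin receptor plus Giaq, Fluo-4-loaded (4 μM, 1 h, 37 °C, pH 7.4 buffer with probenecid); ≥7 concentrations, triplicates.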

Row | Compound | pEC50
1 | CCC(CC)n1c(Cc2cccs2)nc2cc(C(=O)N[C@H](CO)C(C)(C)C)ccc21 [Example 192, 1-(1-Ethyl-propyl)-2-thiophen-2-ylmethyl-1H-benzoimidazole-5-carboxylic acid ((S)-1-hydroxymethyl-2,2-dimethyl-propyl)-amide] | 4.85
2 | CCC(CC)n1c(Cc2cccs2)nc2cc(C(=O)N[C@H](COC)CC(C)C)ccc21 [Example 207, 1-(1-Ethyl-propyl)-2-thiophen-2-ylmethyl-1H-benzoimidazole-5-carboxylic acid ((S)-1-methoxymethyl-3-methyl-butyl)-amide] | 6.26

Same assay, conditions: HEK293 cells stably transfected with human apelin receptor and Giaq protein, Fluo-4 calcium fluorescence, read-out: EC50 (APJ agonism)

Row | pEC50 | Compound
3 | 5.21 | CCC(CC)n1c(Cc2cccs2)nc2cc(C(=O)NC3(CO)CCCC3)ccc21 [Example 193, 1-(1-Ethyl-propyl)-2-thiophen-2-ylmethyl-1H-benzoimidazole-5-carboxylic acid (1-hydroxymethyl-cyclopentyl)-amide]
4 | 6.02 | CCC(CC)n1c(Cc2cccs2)nc2cc(C(=O)N[C@H](CO)[C@@H](C)CC)ccc21 [Example 194, 1-(1-Ethyl-propyl)-2-thiophen-2-ylmethyl-1H-benzoimidazole-5-carboxylic acid ((1S,2S)-1-hydroxymethyl-2-methyl-butyl)-amide]
5 | 4.82 | CCC(CC)n1c(Cc2cccs2)nc2cc(C(=O)N[C@@H](CO)CCSC)ccc21 [Example 195, 1-(1-Ethyl-propyl)-2-thiophen-2-ylmethyl-1H-benzoimidazole-5-carboxylic acid ((R)-1-hydroxymethyl-3-methylsulfanyl-propyl)-amide]
6 | 6.04 | CCCC(CO)NC(=O)c1ccc2c(c1)nc(Cc1cccs1)n2C(CC)CC (stereo not drawn) [Example 196, 1-(1-Ethyl-propyl)-2-thiophen-2-ylmethyl-1H-benzoimidazole-5-carboxylic acid (1-hydroxymethyl-butyl)-amide]
7 | 5.98 | CCCCC(CO)NC(=O)c1ccc2c(c1)nc(Cc1cccs1)n2C(CC)CC (stereo not drawn) [Example 197, 1-(1-Ethyl-propyl)-2-thiophen-2-ylmethyl-1H-benzoimidazole-5-carboxylic acid (1-hydroxymethyl-pentyl)-amide]
8 | 5.05 | CCCC[C@H](CO)NC(=O)c1ccc2c(c1)nc(Cc1cccs1)n2C(CC)CC [Example 198, 1-(1-Ethyl-propyl)-2-thiophen-2-ylmethyl-1H-benzoimidazole-5-carboxylic acid ((R)-1-hydroxymethyl-pentyl)-amide]
9 | 6.15 | CCCC[C@@H](CO)NC(=O)c1ccc2c(c1)nc(Cc1cccs1)n2C(CC)CC [Example 199, 1-(1-Ethyl-propyl)-2-thiophen-2-ylmethyl-1H-benzoimidazole-5-carboxylic acid ((S)-1-hydroxymethyl-pentyl)-amide]
10 | 5.09 | CCC[C@H](CO)NC(=O)c1ccc2c(c1)nc(Cc1cccs1)n2C(CC)CC [Example 200, 1-(1-Ethyl-propyl)-2-thiophen-2-ylmethyl-1H-benzoimidazole-5-carboxylic acid ((R)-1-hydroxymethyl-butyl)-amide]
11 | 6.48 | CCC[C@@H](CO)NC(=O)c1ccc2c(c1)nc(Cc1cccs1)n2C(CC)CC [Example 201, 1-(1-Ethyl-propyl)-2-thiophen-2-ylmethyl-1H-benzoimidazole-5-carboxylic acid ((S)-1-hydroxymethyl-butyl)-amide]
12 | 4.84 | CCC(CC)n1c(Cc2cccs2)nc2cc(C(=O)NC(CO)c3ccccc3)ccc21 (stereo not drawn) [Example 202, 1-(1-Ethyl-propyl)-2-thiophen-2-ylmethyl-1H-benzoimidazole-5-carboxylic acid (2-hydroxy-1-phenyl-ethyl)-amide]
13 | 4.61 | CCC(CC)n1c(Cc2cccs2)nc2cc(C(=O)N[C@@H](CO)C3CCCCC3)ccc21 [Example 203, 1-(1-Ethyl-propyl)-2-thiophen-2-ylmethyl-1H-benzoimidazole-5-carboxylic acid ((R)-1-cyclohexyl-2-hydroxy-ethyl)-amide]
14 | 5.70 | CCC(CC)n1c(Cc2cccs2)nc2cc(C(=O)N[C@H](CO)C3CCCCC3)ccc21 [Example 204, 1-(1-Ethyl-propyl)-2-thiophen-2-ylmethyl-1H-benzoimidazole-5-carboxylic acid ((S)-1-cyclohexyl-2-hydroxy-ethyl)-amide]
15 | 5.76 | CCC(CC)n1c(Cc2cscn2)nc2cc(C(=O)N[C@H](CO)CC(C)C)ccc21 [Example 205, 1-(1-Ethyl-propyl)-2-thiazol-4-ylmethyl-1H-benzoimidazole-5-carboxylic acid ((S)-1-hydroxymethyl-3-methyl-butyl)-amide]
16 | 5.64 | CCC(CC)n1c(Cc2cscn2)nc2cc(C(=O)N[C@H](COC)CC(C)C)ccc21 [Example 206, 1-(1-Ethyl-propyl)-2-thiazol-4-ylmethyl-1H-benzoimidazole-5-carboxylic acid ((S)-1-methoxymethyl-3-methyl-butyl)-amide]
17 | 5.94 | CCOC[C@H](CC(C)C)NC(=O)c1ccc2c(c1)nc(Cc1cccs1)n2C(CC)CC [Example 208, 1-(1-Ethyl-propyl)-2-thiophen-2-ylmethyl-1H-benzoimidazole-5-carboxylic acid ((S)-1-ethoxymethyl-3-methyl-butyl)-amide]
18 | 6.60 | CCC(CC)n1c(Cc2cccs2)nc2cc(C(=O)N[C@H](CO)CC(C)C)ccc21 [Example 209, 1-(1-Ethyl-propyl)-2-thiophen-2-ylmethyl-1H-benzoimidazole-5-carboxylic acid ((S)-1-hydroxymethyl-3-methyl-butyl)-amide]
19 | 6.15 | CC(C)C[C@@H](CO)NC(=O)c1ccc2c(c1)nc(Cc1cccs1)n2C1CCCCC1C (stereo partly drawn) [Example 211, 1-(2-Methyl-cyclohexyl)-2-thiophen-2-ylmethyl-1H-benzoimidazole-5-carboxylic acid ((S)-1-hydroxymethyl-3-methyl-butyl)-amide]
20 | 5.03 | CCC(CC)n1c(Cc2cccs2)nc2cc(C(=O)NC(CCO)c3ccsc3)ccc21 (stereo not drawn) [Example 212, 1-(1-Ethyl-propyl)-2-thiophen-2-ylmethyl-1H-benzoimidazole-5-carboxylic acid (3-hydroxy-1-thiophen-3-yl-propyl)-amide]
21 | 4.52 | CCC(CC)n1c(Cc2cccs2)nc2cc(C(=O)NC(CCO)C3CC3)ccc21 (stereo not drawn) [Example 213, 1-(1-Ethyl-propyl)-2-thiophen-2-ylmethyl-1H-benzoimidazole-5-carboxylic acid (1-cyclopropyl-3-hydroxy-propyl)-amide]
22 | 6.03 | CCCC(CCO)NC(=O)c1ccc2c(c1)nc(Cc1cccs1)n2C(CC)CC (stereo not drawn) [Example 214, 1-(1-Ethyl-propyl)-2-thiophen-2-ylmethyl-1H-benzoimidazole-5-carboxylic acid [1-(2-hydroxy-ethyl)-butyl]-amide]
23 | 5.84 | CCC(CC)n1c(Cc2cccs2)nc2cc(C(=O)N[C@@H](CC(C)C)C(=O)NC3CCC3)ccc21 [Example 215, 1-(1-Ethyl-propyl)-2-thiophen-2-ylmethyl-1H-benzoimidazole-5-carboxylic acid ((S)-1-cyclobutylcarbamoyl-3-methyl-butyl)-amide]
24 | 5.76 | CC(C)C[C@H](NC(=O)c1ccc2c(c1)nc(Cc1cccs1)n2C1CCCCC1C)C(=O)N(C)C (stereo partly drawn) [Example 216, 1-(2-Methyl-cyclohexyl)-2-thiophen-2-ylmethyl-1H-benzoimidazole-5-carboxylic acid ((S)-1-dimethyl-carbamoyl-3-methyl-butyl)-amide]
25 | 5.66 | CCC(CC)n1c(Cc2cccs2)nc2cc(C(=O)N[C@@H](CC(C)C)C(=O)N3CCSCC3)ccc21 [Example 217, 1-(1-Ethyl-propyl)-2-thiophen-2-ylmethyl-1H-benzoimidazole-5-carboxylic acid [(S)-3-methyl-1-(thiomorpholine-4-carbonyl)-butyl]-amide]
26 | 5.70 | CCC(C)NC(=O)[C@H](CC(C)C)NC(=O)c1ccc2c(c1)nc(Cc1cccs1)n2C(CC)CC (stereo partly drawn) [Example 218, 1-(1-Ethyl-propyl)-2-thiophen-2-ylmethyl-1H-benzoimidazole-5-carboxylic acid ((S)-1-sec-butylcarbamoyl-3-methyl-butyl)-amide]
27 | 6.56 | CCC(CC)n1c(Cc2cccs2)nc2cc(C(=O)N[C@@H](CC(C)C)C(=O)NCCC3CCCN3C)ccc21 (stereo partly drawn) [Example 219, 1-(1-Ethyl-propyl)-2-thiophen-2-ylmethyl-1H-benzoimidazole-5-carboxylic acid {(S)-3-methyl-1-[2-(1-methyl-pyrrolidin-2-yl)-ethylcarbamoyl]-butyl}-amide]
28 | 5.54 | CCC(CC)n1c(Cc2cccs2)nc2cc(C(=O)N[C@@H](CC(C)C)C(=O)NCc3ccccc3)ccc21 [Example 220, 1-(1-Ethyl-propyl)-2-thiophen-2-ylmethyl-1H-benzoimidazole-5-carboxylic acid ((S)-1-benzylcarbamoyl-3-methyl-butyl)-amide]
29 | 5.74 | CCC(CC)n1c(Cc2cccs2)nc2cc(C(=O)N[C@@H](CC(C)C)C(=O)NCc3ccco3)ccc21 [Example 221, 1-(1-Ethyl-propyl)-2-thiophen-2-ylmethyl-1H-benzoimidazole-5-carboxylic acid {(S)-1-[(furan-2-ylmethyl)-carbamoyl]-3-methyl-butyl}-amide]

Row | Compound | pEC50
30 | CCCCOC[C@H](CC(C)C)NC(=O)c1ccc2c(c1)nc(Cc1cccs1)n2C(CC)CC [Example 210, 1-(1-Ethyl-propyl)-2-thiophen-2-ylmethyl-1H-benzoimidazole-5-carboxylic acid ((S)-1-butoxymethyl-3-methyl-butyl)-amide] | 4.99
